Results as given in US7332482B2, “Method for treating benign prostatic hyperplasia” (BioXell S.p.A., priority 2003, dated 2008).
“Also recorded” adds a separate entry of the source. Marks after values point to notes of the source that are not given here.

T1: AR (Homo sapiens, UniProt P10275)
T1 sequence (P10275 1-920): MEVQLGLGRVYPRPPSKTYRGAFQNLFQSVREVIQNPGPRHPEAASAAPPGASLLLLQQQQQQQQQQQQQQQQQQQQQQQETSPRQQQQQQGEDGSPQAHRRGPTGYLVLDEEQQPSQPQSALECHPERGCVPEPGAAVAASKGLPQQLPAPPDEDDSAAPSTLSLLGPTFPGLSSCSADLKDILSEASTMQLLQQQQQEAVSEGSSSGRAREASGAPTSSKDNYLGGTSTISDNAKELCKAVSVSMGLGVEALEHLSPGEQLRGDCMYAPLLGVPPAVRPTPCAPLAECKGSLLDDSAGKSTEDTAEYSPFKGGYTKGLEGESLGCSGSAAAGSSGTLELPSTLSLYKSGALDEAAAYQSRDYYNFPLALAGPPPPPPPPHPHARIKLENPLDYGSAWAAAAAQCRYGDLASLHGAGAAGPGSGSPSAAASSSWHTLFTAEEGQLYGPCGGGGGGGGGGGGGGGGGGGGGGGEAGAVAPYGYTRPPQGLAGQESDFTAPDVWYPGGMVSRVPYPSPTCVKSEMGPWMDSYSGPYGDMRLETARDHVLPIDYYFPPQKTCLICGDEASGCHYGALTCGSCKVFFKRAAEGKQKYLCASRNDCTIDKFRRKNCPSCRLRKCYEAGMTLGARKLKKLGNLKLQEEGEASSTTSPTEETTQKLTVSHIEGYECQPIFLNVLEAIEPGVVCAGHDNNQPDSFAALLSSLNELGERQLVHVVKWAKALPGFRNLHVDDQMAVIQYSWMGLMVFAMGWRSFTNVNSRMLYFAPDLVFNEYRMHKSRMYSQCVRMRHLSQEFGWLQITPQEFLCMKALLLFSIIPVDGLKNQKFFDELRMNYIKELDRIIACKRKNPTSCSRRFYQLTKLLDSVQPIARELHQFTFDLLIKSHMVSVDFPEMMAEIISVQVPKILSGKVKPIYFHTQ

T2: 5α reductase type 1 (Homo sapiens, UniProt P18405)
T2 construct: host or cells: CHO 1827
T2 sequence (P18405 1-259): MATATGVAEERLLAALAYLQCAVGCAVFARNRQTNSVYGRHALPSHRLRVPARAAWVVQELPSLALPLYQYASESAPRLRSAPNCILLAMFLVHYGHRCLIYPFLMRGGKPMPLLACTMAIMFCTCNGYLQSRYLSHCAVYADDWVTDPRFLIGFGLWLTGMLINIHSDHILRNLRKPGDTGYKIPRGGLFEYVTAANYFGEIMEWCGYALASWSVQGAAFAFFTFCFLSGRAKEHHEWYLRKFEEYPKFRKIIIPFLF

T3: 5α reductase type 2 (Homo sapiens, UniProt P31213)
T3 construct: host or cells: CHO 1829
T3 sequence (P31213 1-254): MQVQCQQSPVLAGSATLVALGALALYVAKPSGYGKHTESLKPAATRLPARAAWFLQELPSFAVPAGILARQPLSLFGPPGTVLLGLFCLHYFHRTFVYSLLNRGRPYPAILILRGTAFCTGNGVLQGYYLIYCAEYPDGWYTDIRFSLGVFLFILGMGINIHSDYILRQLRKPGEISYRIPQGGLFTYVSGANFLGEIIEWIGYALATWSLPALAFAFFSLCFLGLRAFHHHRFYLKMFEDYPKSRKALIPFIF


Assays:
[1] = system: BPH cells; assay: BPH cell proliferation assay; assay type: cell-based, human; details: 48 h; for BPH cell proliferation increased by stimulus: T 10 nM or GF 10 ng/ml; for effect on DHT-stimulated BPH cell proliferation: DHT 10 nM; for effect on DHT-stimulated BPH cell proliferation / effect on T-stimulated BPH cell proliferation: Compound A 1 nM, F 1 nM, Cyp 100 nM; for effect on T-stimulated BPH cell proliferation: T 10 nM
Method: (§1) Human BPH cells, prepared, maintained and used as previously described in Crescioli C, et al. Journal of Clinical and Endocrinology Metabolism (2000) 85 p 2576-2583, were obtained from prostate tissues derived from 5 patients, who underwent suprapubic adenomectomy for BPH, after informed consent and approval by the Local Ethical Committee.
For all cell proliferation assay, 4×10^4 BPH cells were seeded onto 12-well plates in their growth medium, starved in red- and serum-free medium containing 0.1% BSA for 24 h, and then treated with specific stimuli for 48 h. Cells in phenol red- and serum-free medium containing 0.1% BSA were used as controls. Thereafter, cells were trypsinized, and each experimental point was derived from hemocytometer counting, averaging at least six different fields for each well, as previously reported (see Crescioli C, et al. Journal of Clinical and Endocrinology Metabolism (2000) 85 p 2576-2583). […] Growth assays were also carried out using a fixed concentration of androgens (10 nM) with or without Compound A (1 nM, 10 nM) or the anti-androgens finasteride (F, 1 nM) and cyproterone acetate (Cyp, 100 nM). Growth assays were also performed using a fixed concentration of T (10 nM) or GFs (10 ng/ml) with or without Compound A (10 nM). In the same experiment, each experimental point was repeated in triplicate or quadruplicate and experiments were performed 3 times. Results are expressed as % variation (mean±SEM) over the maximal T or GF-induced stimulation.

[2] = system: BPH cells; assay: In situ end labeling (ISEL) of apoptotic BPH cells; assay type: cell-based, human; details: for change in percentage of apoptotic nuclei vs untreated cells: 48 h, Compound A 10 nM, T 10 nM, GFs 10 ng/ml
Method: as §1
ISEL was performed onto BPH cells using Apop Tag in situ apoptosis detection kit peroxydase following the manufacturer's instruction. Cells were incubated with T (10 nM), KGF (10 ng/ml) or Des(1-3)IGF-I (10 ng/ml) with or without Compound A (10 nM). The percentage of apoptotic cells (the number of stained cells divided by the total number of cells) was calculated in at least five separate fields per slide in five different slides. Results are expressed as mean±SEM from three separate experiments.

[3] = biological target: T1, AR; assay: [3H]R1881 binding assay on cytosol fractions of BPH fragments; set-up: from tissue; host or cells: human BPH prostatic tissue, cytosol fraction
Method: Prostatic tissues for binding assay were obtained from patients who underwent suprapubic adenomectomy for BPH. No pharmacological treatment was performed in the 3 months preceding surgery. After surgery, the tissues were immediately placed in liquid nitrogen and stored at −80° C. until processing.
Protein content was determined by the known method of Bradford, using BSA as a standard.

[4] = biological target: T2, 5α reductase type 1; assay: 5α reductase inhibition test in CHO 1827 cells; assay type: cell-based; details: CHO cells transfected with type 1, n=3
Method: (§2) CHO-1827 and CHO-1829 cells, transfected with 5α reductase type 1 (5αR-1) or type 2 (5αR-2), respectively (see Steers W. Urology (2001) 58 p 17-24), were maintained in Ham's F12 medium supplemented with 5% FCS.
(§3) 5α reductase inhibition assay was performed using CHO 1827 cells, transfected with 5αR-1, or CHO 1829 cells, transfected with 5αR-2, as described (see Guarna A, et al. Journal of Medicinal Chemistry (2000) 43 3718-3735.). Compound A was added in a concentration range from 10^−9 to 10^−5 M, using finasteride as a control inhibitor in each experiment.

[5] = biological target: T3, 5α reductase type 2; assay: 5α reductase inhibition test in CHO 1829 cells; assay type: cell-based; details: CHO cells transfected with type 2, n=3
Method: as §2, §3

[6] = system: rat ventral prostate; assay: Clusterin expression (Northern, immunohistochemistry) and TUNEL in rat ventral prostate; assay type: in vivo; details: orchidectomized T-supplemented rats; Compound A 300 and 100 μg/Kg, F 40 mg/Kg
Method: Total RNA was extracted using RNAFast from Molecular System (San Diego, Calif.). Blotting, labelling, hybridization conditions and probes (rat clusterin 1.5 Kb full-length cDNA and GAPDH 1.2 Kb full-length cDNA) were performed according to the reported procedures (Bettuzzi et al, Biochemical Journal, (1989), 257, p 293-296 and Marinelli et al, Biochemistry and Cell Biology, (1994), 72, p 515-521). Quantitation of the autoradiograms was obtained by densitometric scanning using an LKB Ultrascan XL densitometer.
All the cryostatic sections obtained from controls and treated rats were processed in parallel as previously described (Astancolle et al, Journal of Endocrinology, (2000), 167, p 197-204). For every experimental condition, 3 alternate sections from 3 different rat prostates were examined. […] Counterstaining was performed with haematoxylin, and cover slips were mounted with Eukitt (O. Kindler GmbH & Co, Germany). Digital high-magnification colour images were acquired by a CCD camera through the microscope.
DNA fragmentation in prostate cryostatic sections, assessed by terminal deoxynucleotidyl transferase (TdT)-mediated dUTP nick end-labelling (TUNEL), was performed using the In Situ Cell Death Detection Kit (POD, Roche) as recommended by the manufacturer. TUNEL positive apoptotic nuclei were documented by digital high-magnification colour images acquired by a CCD camera through the microscope. Counterstaining was performed with eosin, and cover slips were mounted with Eukitt (O Kindler GmbH & Co, Germany).

Molecule | BPH cell proliferation increased by stimulus [1] | change in percentage of apoptotic nuclei vs untreated cells [2] | effect on DHT-stimulated BPH cell proliferation [1] | effect on T-stimulated BPH cell proliferation [1] | further results
C[C@]12CC[C@H]3[C@@H](CCC4=CC(=O)CC[C@@]43C)[C@@H]1CC[C@@H]2O [T, testosterone, reference compound] | 156±8% | −27% |  |  | 
CC(=O)O[C@]1(C(C)=O)CC[C@H]2[C@@H]3C=C(Cl)C4=CC(=O)[C@@H]5C[C@@H]5[C@]4(C)[C@H]3CC[C@@]21C [cyproterone acetate, reference compound] |  |  | significantly blocked | significantly blocked | 
C[C@]1(O)CC[C@H]2[C@@H]3CCC4=CC(=O)CCC4=C3C=C[C@@]21C [Compound R1881, reference compound] |  |  |  |  | competition for [3H]-R1881 binding [3]: completely displaced
C=C1/C(=C\C=C2/CCC[C@]3(C)[C@@H]([C@H](C)CCCC(C)(C)O)CC[C@@H]23)C[C@@H](O)C[C@@H]1O [calcitriol, 1,25-dihydroxyvitamin D3, reference compound] |  |  |  |  | IC50 ([1]; Homo sapiens, read-out: −log IC50, inhibition of BPH cell growth (converted)): 0.0631 nM; maximal inhibition (Imax) of BPH cell growth ([1]; unstimulated BPH cells, Imax shared by both secosteroids): 43±1%
CC(C)(C)NC(=O)[C@H]1CC[C@H]2[C@@H]3CC[C@H]4NC(=O)C=C[C@]4(C)[C@H]3CC[C@]12C [finasteride, 17β-(N,t-butyl)carbamoyl-4-aza-5α-androst-1-en-3-one, reference compound] |  |  | effective only against T | antagonized only T-induced cell growth; also recorded: effective only against T | IC50 [4]: 659 ± 100 nM; IC50 [5]: 53.7 ± 11 nM; clusterin mRNA expression in ventral prostate (Northern) [6]: partially blunted the T-induced down-regulation of clusterin gene expression
KGF: Keratinocyte growth factor from Pepro Tech EC (protein, UniProt P21781 32-194, looked up) Fibroblast growth factor 7: CNDMTPEQMATNVNCSSPERHTRSYDYMEGGDIRVRRLFCRTQWYLRIDKRGKVKGTQEMKNNYNIMEIRTVAVGIVAIKGVESEFYLAMNKEGKLYAKKECNEDCNFKELILENHYNTYASAKWTHNGGEMFVALNQKGIPVRGKKTKKEQKTAHFLPMAIT | 183±5% | −54% |  |  | Apoptotic index (%) ([2]; GF 10 ng/ml or T 10 nM alone, ISEL): 8.5 ± 0.42^a %
